Assays:
[1] = target: Cannabinoid receptor 1 (Homo sapiens, UniProt P21554); assay type: functional, cell-based
[2] = target: T1, Muscarinic acetylcholine receptor M1 (Homo sapiens, UniProt P11229); assay type: functional
T1 sequence (P11229 whole entry): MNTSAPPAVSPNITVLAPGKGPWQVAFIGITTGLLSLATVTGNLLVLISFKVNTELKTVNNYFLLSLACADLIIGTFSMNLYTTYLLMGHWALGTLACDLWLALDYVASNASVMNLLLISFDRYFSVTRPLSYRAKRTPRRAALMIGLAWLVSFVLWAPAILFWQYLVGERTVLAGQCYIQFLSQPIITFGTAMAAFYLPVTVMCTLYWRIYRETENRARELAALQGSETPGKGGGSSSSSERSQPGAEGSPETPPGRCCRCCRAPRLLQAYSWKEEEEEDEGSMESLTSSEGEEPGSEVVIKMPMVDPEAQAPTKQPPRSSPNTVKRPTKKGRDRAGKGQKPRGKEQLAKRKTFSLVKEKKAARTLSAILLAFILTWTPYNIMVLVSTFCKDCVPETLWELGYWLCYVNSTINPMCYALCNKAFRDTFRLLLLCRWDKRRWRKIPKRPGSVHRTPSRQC

[3] = target: T2, 5-hydroxytryptamine receptor 1A (Homo sapiens, UniProt P08908); assay type: functional, cell-based
T2 sequence (P08908 whole entry): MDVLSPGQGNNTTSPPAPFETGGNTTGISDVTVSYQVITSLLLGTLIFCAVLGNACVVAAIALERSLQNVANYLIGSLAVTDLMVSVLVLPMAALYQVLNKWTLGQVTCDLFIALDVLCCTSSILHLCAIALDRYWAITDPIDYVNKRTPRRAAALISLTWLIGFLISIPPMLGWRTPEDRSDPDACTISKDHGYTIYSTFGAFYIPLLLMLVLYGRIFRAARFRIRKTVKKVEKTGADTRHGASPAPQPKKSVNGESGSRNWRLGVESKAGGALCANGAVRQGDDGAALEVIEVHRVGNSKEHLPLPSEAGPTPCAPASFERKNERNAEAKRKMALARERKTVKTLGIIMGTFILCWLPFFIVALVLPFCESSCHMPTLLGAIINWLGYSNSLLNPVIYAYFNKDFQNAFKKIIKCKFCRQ

[4] = target: Voltage-dependent L-type calcium channel subunit alpha-1C (Rattus norvegicus, UniProt P22002); assay type: functional
[5] = target: T3, Estrogen receptor (Homo sapiens, UniProt P03372)
T3 sequence (P03372 whole entry): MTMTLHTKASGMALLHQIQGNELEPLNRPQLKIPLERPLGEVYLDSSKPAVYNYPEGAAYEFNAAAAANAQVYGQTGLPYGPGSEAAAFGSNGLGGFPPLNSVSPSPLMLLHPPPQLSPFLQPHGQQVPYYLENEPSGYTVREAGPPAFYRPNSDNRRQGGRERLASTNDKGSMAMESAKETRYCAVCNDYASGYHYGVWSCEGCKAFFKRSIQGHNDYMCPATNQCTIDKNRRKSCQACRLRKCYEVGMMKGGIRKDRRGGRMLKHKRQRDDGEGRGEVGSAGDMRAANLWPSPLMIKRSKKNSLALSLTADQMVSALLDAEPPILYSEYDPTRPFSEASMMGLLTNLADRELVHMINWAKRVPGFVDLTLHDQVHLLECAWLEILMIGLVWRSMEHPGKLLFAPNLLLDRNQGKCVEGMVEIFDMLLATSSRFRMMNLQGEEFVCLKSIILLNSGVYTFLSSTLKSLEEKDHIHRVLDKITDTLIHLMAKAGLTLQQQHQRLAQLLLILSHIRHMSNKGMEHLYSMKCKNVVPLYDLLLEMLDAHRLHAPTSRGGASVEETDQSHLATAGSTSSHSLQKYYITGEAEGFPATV

[6] = target: T4, Thromboxane A2 receptor (Homo sapiens, UniProt P21731)
T4 sequence (P21731 whole entry): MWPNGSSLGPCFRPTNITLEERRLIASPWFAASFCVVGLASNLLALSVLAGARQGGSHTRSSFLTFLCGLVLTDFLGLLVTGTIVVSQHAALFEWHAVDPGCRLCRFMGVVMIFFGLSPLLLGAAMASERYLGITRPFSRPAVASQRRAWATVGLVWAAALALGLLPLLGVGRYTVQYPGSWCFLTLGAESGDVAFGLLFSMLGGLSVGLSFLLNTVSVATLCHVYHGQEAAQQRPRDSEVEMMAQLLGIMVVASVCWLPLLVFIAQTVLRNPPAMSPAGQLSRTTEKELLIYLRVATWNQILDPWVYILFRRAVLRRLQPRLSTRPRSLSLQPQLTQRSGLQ

[7] = target: Melanocortin receptor 3 (Homo sapiens, UniProt P41968)
[8] = target: T5, Amine oxidase [flavin-containing] A (Homo sapiens, UniProt P21397); assay type: functional
T5 sequence (P21397 whole entry): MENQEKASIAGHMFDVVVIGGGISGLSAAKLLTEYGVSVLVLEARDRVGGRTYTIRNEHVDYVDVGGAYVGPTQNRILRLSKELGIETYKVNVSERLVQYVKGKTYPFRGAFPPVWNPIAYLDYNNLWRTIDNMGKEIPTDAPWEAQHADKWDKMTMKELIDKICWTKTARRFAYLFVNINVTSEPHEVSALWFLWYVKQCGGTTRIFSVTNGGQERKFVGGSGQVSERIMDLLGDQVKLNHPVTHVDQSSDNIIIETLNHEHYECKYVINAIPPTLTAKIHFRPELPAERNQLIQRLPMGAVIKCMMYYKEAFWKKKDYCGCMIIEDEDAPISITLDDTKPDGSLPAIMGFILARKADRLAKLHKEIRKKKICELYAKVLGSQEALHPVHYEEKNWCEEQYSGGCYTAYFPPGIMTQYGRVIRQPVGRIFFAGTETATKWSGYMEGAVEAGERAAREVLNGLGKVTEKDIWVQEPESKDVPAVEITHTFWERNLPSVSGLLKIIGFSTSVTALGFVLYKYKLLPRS
Note: assay procedure not described here.

Chain of Voltage-dependent L-type calcium channel subunit alpha-1C (P22002 whole entry): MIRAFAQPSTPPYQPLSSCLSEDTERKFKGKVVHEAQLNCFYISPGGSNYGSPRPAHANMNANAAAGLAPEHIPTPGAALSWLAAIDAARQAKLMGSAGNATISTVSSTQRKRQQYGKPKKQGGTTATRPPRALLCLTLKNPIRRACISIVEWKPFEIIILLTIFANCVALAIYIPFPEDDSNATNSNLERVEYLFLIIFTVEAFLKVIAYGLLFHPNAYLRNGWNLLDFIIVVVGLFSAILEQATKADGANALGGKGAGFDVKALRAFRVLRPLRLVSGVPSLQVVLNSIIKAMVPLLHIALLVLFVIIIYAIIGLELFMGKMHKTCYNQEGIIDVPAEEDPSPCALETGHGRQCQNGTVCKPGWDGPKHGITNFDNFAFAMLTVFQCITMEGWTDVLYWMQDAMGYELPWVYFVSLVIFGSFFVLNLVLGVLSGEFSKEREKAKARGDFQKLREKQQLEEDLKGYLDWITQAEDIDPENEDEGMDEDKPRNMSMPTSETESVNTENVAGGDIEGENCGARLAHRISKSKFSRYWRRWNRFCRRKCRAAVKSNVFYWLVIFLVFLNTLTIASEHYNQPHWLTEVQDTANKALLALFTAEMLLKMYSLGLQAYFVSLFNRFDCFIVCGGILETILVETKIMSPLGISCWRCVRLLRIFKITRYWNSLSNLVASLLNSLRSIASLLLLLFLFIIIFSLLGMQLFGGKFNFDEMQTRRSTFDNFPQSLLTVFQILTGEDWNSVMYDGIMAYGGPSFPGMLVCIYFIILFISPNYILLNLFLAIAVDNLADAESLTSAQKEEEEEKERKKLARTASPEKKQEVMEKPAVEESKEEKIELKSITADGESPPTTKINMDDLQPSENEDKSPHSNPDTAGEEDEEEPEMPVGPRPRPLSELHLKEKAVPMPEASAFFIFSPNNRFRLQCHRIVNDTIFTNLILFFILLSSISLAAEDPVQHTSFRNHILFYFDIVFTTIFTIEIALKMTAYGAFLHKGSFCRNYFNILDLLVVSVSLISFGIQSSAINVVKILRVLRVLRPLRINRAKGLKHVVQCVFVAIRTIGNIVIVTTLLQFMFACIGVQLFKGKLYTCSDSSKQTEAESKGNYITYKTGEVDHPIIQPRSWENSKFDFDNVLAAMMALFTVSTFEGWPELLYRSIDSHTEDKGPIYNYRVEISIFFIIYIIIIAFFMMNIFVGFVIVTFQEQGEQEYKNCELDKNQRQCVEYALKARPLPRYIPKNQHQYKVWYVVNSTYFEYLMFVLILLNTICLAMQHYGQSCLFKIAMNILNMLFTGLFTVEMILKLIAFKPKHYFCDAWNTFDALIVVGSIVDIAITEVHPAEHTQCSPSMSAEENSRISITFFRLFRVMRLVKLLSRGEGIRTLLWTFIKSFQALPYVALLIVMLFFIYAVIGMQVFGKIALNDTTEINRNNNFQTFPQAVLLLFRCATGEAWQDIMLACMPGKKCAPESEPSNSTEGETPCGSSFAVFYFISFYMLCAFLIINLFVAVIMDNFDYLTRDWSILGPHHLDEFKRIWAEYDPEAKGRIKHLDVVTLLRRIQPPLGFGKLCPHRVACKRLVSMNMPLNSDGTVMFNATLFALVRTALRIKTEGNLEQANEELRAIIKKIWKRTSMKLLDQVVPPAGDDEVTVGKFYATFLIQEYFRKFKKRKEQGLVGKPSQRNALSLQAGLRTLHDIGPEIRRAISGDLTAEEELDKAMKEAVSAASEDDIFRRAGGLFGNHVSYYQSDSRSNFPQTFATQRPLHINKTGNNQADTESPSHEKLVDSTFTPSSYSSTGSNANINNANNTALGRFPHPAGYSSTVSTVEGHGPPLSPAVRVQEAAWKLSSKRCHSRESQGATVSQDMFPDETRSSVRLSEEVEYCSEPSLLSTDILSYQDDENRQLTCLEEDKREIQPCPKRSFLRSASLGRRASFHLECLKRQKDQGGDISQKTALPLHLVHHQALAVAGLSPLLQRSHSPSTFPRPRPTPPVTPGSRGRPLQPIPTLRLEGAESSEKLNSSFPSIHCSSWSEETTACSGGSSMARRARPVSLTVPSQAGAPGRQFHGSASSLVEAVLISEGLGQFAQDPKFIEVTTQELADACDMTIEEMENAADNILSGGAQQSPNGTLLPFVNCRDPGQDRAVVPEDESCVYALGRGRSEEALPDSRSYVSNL
Chain of Melanocortin receptor 3 (P41968 whole entry): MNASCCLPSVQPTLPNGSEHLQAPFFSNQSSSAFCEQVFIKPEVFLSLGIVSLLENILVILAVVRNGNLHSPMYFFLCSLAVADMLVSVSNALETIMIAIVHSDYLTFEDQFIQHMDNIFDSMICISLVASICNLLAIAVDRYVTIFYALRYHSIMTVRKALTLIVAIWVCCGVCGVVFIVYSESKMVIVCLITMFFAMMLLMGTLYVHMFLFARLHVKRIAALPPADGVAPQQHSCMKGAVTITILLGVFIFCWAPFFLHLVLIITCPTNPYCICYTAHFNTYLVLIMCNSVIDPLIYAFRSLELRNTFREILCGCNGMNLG
Chain of Cannabinoid receptor 1 (P21554 whole entry): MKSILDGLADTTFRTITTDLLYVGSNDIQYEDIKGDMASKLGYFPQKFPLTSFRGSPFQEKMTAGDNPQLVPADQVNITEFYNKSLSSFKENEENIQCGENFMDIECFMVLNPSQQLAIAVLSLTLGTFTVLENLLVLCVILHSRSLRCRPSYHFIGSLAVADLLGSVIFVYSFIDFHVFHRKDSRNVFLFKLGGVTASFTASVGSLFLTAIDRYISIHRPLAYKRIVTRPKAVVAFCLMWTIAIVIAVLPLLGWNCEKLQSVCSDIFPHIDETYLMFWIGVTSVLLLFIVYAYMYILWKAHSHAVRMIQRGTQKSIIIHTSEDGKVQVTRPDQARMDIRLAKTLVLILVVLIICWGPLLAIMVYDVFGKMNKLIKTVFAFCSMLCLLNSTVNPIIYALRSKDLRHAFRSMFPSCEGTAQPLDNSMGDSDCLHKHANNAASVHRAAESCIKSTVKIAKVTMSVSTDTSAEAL

O=C(O)CCCCCCNC1c2ccccc2CCc2ccccc21 [AMINEPTINE]
AC50 [1]: > 30 µM
AC50 [2]: > 30 µM
AC50 [3]: > 30 µM
AC50 [4]: > 30 µM
AC50 [5]: > 30 µM
AC50 [6]: > 30 µM
AC50 [7]: > 30 µM
AC50 [8]: > 30 µM

CN1C(=O)C(O)N=C(c2ccccc2Cl)c2cc(Cl)ccc21 (centres undefined) [LORMETAZEPAM]
AC50 [1]: > 30 µM
AC50 [2]: > 30 µM
AC50 [3]: > 30 µM
AC50 [4]: > 30 µM
AC50 [5]: > 30 µM
AC50 [6]: > 30 µM
AC50 [7]: > 30 µM
AC50 [8]: > 30 µM

CC(C)(C)C(=O)Oc1ccc(S(=O)(=O)Nc2ccccc2C(=O)NCC(=O)O)cc1
AC50 [1]: > 30 µM
AC50 [2]: > 30 µM
AC50 [3]: > 30 µM
AC50 [4]: > 30 µM
AC50 [5]: > 30 µM
AC50 [6]: > 30 µM
AC50 [7]: > 30 µM
AC50 [8]: > 30 µM

CCC(C(=O)O)c1ccc(N2Cc3ccccc3C2=O)cc1 (centres undefined) [INDOBUFEN]
AC50 [1]: > 30 µM
AC50 [2]: > 30 µM
AC50 [3]: 1.9 µM
AC50 [4]: > 30 µM
AC50 [5]: > 30 µM
AC50 [6]: > 30 µM
AC50 [7]: > 30 µM
AC50 [8]: > 30 µM

COc1ccccc1OCCNCC(O)c1ccc(C)c(S(N)(=O)=O)c1 (centres undefined) [AMOSULALOL]
AC50 [1]: > 30 µM
AC50 [2]: > 30 µM
AC50 [3]: 0.16 µM
AC50 [4]: > 30 µM
AC50 [5]: > 30 µM
AC50 [6]: > 30 µM
AC50 [7]: > 30 µM
AC50 [8]: > 30 µM

C=CCN1CCCC1CNC(=O)c1cc(S(N)(=O)=O)cc(OC)c1OC (centres undefined) [VERALIPRIDE]
AC50 [1]: > 30 µM
AC50 [2]: > 30 µM
AC50 [3]: 3.6 µM
AC50 [4]: > 30 µM
AC50 [5]: > 30 µM
AC50 [6]: > 30 µM
AC50 [7]: > 30 µM
AC50 [8]: > 30 µM

CN1C(=O)C(O)N=C(c2ccccc2)c2cc(Cl)ccc21 (centres undefined) [TEMAZEPAM]
AC50 [1]: > 30 µM
AC50 [2]: > 10 µM
AC50 [3]: > 10 µM
AC50 [4]: > 10 µM
AC50 [5]: > 30 µM
AC50 [6]: > 30 µM
AC50 [7]: > 30 µM
AC50 [8]: > 10 µM

CCOC(=O)[C@H](CCc1ccccc1)N[C@@H](C)C(=O)N1C(=O)N(C)C[C@H]1C(=O)O
AC50 [1]: > 30 µM
AC50 [2]: > 30 µM
AC50 [3]: > 30 µM
AC50 [4]: > 30 µM
AC50 [5]: > 30 µM
AC50 [6]: > 30 µM
AC50 [7]: > 30 µM
AC50 [8]: > 30 µM
